The subject of the test is Non-transgenic maize seed from inbred N46. The experiment in a line: Priming matrix additives: Dormex + DMSO. The class given is in vivo. The conditions noted are these: 1% DMSO without Dormex, 3 hours, 95 seed. How it is done: Non-transgenic maize seed from inbred N46 were primed with 0, 5, 10, 15, or 30% Dormex® solutions with and without 1% DMSO. For each treatment, 96 seeds were soaked in 50 ml of Dormexe solution in a petri dish for 3 hours at room temperature. After priming the seeds were transferred into pollination bags, and dried overnight in front of a fan. Dried primed seed were then planted into flats to germinate.

In the case of `C[S+](C)[O-]` [DMSO], the Germination % was found to be 93% and the Seedlings came out at 88.

Source of the values: patent US20070220627A1, “Methods and Compositions for the Selection of a Transgenic Plant” (PIONEER HI-BRED INTERNATIONAL, INC., priority 2006, published 2007).
